The values that follow come from patent EP4650362A1, “NEUROPROTECTIVE PSD-95 POLYPEPTIDE INHIBITOR AND USE THEREOF” (Beijing Tuo Jie Biopharmaceutical Co. Ltd., priority 2023, dated 2024).

pEC50, pIC50: −log10 of the molar value. Where “and” joins values, the source holds several entries; their conditions need not be identical. Equal entries are not always repeated.

A short description of data set [1]: plasma stability test, rat plasma. The format is in vitro ADME. As to conditions: 2 µM (test control). The protocol:
(§1) This test example assessed the in vitro stability of polypeptide compounds in rat and human plasma, and is divided into two parts: 1) the stability of the individual polypeptide compounds in rat and human plasma; and 2) the stability of the polypeptide compounds in rat and human plasma when the polypeptide compounds are administered simultaneously with alteplase (rt-PA).
(§2) Solution preparation: An appropriate amount of a test polypeptide compound was weighed out and dissolved in an appropriate amount of 1× PBS to form a 1 mM test solution. NA-1 and NoNO42 were used as positive drugs, propantheline bromide was used as a human plasma test control, and lovastatin was used as a rat plasma test control.
(§3) Plasma stability test: 12.5 µL of the 1 mM test solution was added to a 495 µL pre-incubated plasma sample. The prepared plasma sample was added to centrifuge tubes of different incubation times (0 min, 10 min, 20 min, 30 min, 60 min, and 120 min) (50 µL/tube), and the tubes were then incubated in a water bath at 37 °C with shaking at 60 rpm. For each incubation time, two parallel samples were set. Subsequently, 200 µL of stop solution was added to stop the incubation, and the mixtures were vortexed for 5 min. Then the mixtures were centrifuged at 10,000 rpm at 4 °C for 10 min to remove the protein in the sample, and 70 µL of the supernatant was transferred to a new 96-well plate (70 µL of water was added to each well beforehand) and well mixed.
(§4) The remaining compound content at each time point was determined by LC-MS/MS, and the relative remaining compound contents at the other time points were calculated with the content at 0 min as a standard (100%).
(§5) Sample pretreatment: A 30 µL plasma sample was taken and added to 120 µL of a 5% solution of formic acid in methanol containing 1 ng/mL internal standard (verapamil). The mixture was vortexed for 5 min and centrifuged at low temperature at 10,000 rpm for 10 min. 70 µL of the supernatant was taken, and 70 µL of a 0.1% aqueous solution of formic acid was added and well mixed, and the mixture was injected into an LC-MS system for analysis.
(§6) LC-MS analysis: (1) Chromatographic conditions: mobile phase A: 0.1% formic acid in water; mobile phase B: 0.1% formic acid in acetonitrile; flow rate: 0.5 mL/min; injection volume: 10 µL; chromatography column: nanomicro Unisil C18aq (4.6 mm × 150 mm, 5 µm); column temperature: 40 °C. (2) Mass-spectrometric conditions: The mass spectrometry analysis used an electrospray ionization (ESI) source, a positive ion analysis mode, and a multi-reaction monitoring (MRM) scan mode. The experimental results are shown in Table 4-1, Table 4-2, FIG. 2A, FIG. 2B, FIG. 2C, and FIG. 2D. Table 4-1. The plasma stability of the polypeptide compound

A short description of data set [2]: plasma stability test, human plasma. It counts as in vitro ADME. As to conditions: 2 µM (test control). The method, then:
as §1, §2, §3, §4, §5, §6

Data set [3] deals with Biotin-PDZ2 (human). The experiment in a line: binding ELISA; peptide coated at 2 µM, Biotin-PDZ2 titrated. For orientation: An ELISA detects its analyte on a solid surface through an enzyme-linked reagent.
Data set [4] deals with Biotin-PDZ2 (human). The experiment in a line: binding ELISA; ratio of EC50 on Biotin-PDZ3 to EC50 on Biotin-PDZ2.
The target of data set [5] is human PSD95-PDZ2 (the tag was removed by TEV enzyme) (human) (UniProt P78352). Description: competitive ELISA; NA-1 reference value printed with compound 15; competitor Biotin-NA-1 at 0.3 µM.
Sequence of human PSD95-PDZ2 (the tag was removed by TEV enzyme) (human) (P78352 155-249 limits assumed): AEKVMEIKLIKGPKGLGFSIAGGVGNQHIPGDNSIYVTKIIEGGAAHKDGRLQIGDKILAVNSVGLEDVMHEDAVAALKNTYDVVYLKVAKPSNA
Data set [6] has the same target. The experiment in a line: competitive ELISA; NA-1 reference value printed with compound 16; competitor Biotin-NA-1 at 0.3 µM.
Data set [7] shares this target. The experiment in a line: competitive ELISA; NA-1 reference value printed with compound 17; competitor Biotin-NA-1 at 0.3 µM.
The target is the same in data set [8]. The experiment in a line: competitive ELISA; NA-1 reference value printed with compound 22; competitor Biotin-NA-1 at 0.3 µM.
The test system of the next data set is PDZ2. The following applies: Science, 2002, 298:846-50; cited from earlier work.

In the case of `CC[C@H](C)C(=O)O[C@H]1C[C@@H](C)C=C2C=C[C@H](C)[C@H](CC[C@@H]3C[C@@H](O)CC(=O)O3)[C@H]21` [Lovastatin], the “Relative remaining compound content (%)” value was 100.0% in data set [1] (0min (standard 100%)); 8.5% and 9.6% in data set [1] (10min); 1.8% and 2.1% in [1] (20min); 0.7% and 0.9% in data set [1] (30min).

`CC(C)[N+](C)(CCOC(=O)C1c2ccccc2Oc2ccccc21)C(C)C` [Propantheline bromide]: the “Relative remaining compound content (%)” value was 100.0% in data set [2] (0min (standard 100%)); 80.2% and 84.0% in data set [2] (10min); 71.5% and 66.8% in data set [2] (20min); 63.4% and 53.4% in data set [2] (30min); 42.7% and 26.4% in [2] (60min); 10.9% and 7.2% in data set [2] (120min).

Regarding NA-1 (peptide), the pEC50 (commonly −log10 of the EC50, conventionally taken in molar units) with Biotin-PDZ2 (human) [3] is 7.08. Moreover, the Specificity for PDZ2 (PDZ3/PDZ2) with Biotin-PDZ2 (human) [4] is more than 10000. Also, the pIC50 (usually the negative decadic logarithm of the IC50, by convention in mol/L) was 6.06 in [5], 6.06 in [6], 6.06 in data set [7] and 6.29 in data set [8].

On to “YGRKKRRQRRRKLSSIEADA (source 1..20: note = NA-1(ADA)) [negative control, mutant of NA-1 obtained by mutating the amino acids at positions 0 and -2 into Ala]”, for which, in the data set with PDZ2, the “ability to bind to PDZ2” value is “no ability to bind to PDZ2”.
